Where no end group is shown, it is not given here.

Series [1] has as its system monkey kidney cell line Vero E6. Kind of series: Cell viability, Vero E6. Type of series: cell-based. Conditions: monkey kidney cell line Vero E6 (Fig. S6).
The nature of series [2]: Water solubility of peptide. As to conditions: in words, method not given. It is filed as physicochemical.

As to KLTFLEYWAQLMQK [M3-2K], in series [1], the “effect on viability of Vero E6” value is “neither PMI-2K nor M3-2K had any effect on the viability”. Also, the water solubility result in series [2] is “improved peptide solubility”.

These data come from PMC8463443 (Acta Pharmaceutica Sinica. B, 2021).
